Results: patent publication US6992095B2, “Stilbene compounds comprising an adamantyl group, compositions and methods thereof” (Galderma Research & Development, S.N.C., priority 1996, dated 2006)
Read-outs that look alike come from different tables or passages of the source.

Test system: mouse embryonic teratocarcinoma F9 cells
Experiment: mouse embryonic teratocarcinoma F9 cell differentiation test (antagonist activity)
Type: cell-based
Conditions: inhibition by 50% of agonist effect on secretion of plasminogen activator, CD 2043 at 10 nM, incubation for three days, read-out: Antagonist against CD 2043 (10 nM) F9 differentiation test IC50
Excerpt: The compounds according to the invention show activity in the test of differentiation of mouse embryonic teratocarcinoma cells (F9) (Cancer Research, 43, 5268 (1983)) and/or in the test of inhibition of ornithine decarboxylase after induction with TPA in mice (Cancer Research, 38, 793–801 (1978)). These tests show the activities of these compounds in the fields of cell differentiation and cell proliferation, respectively. In the test of cell (F9) differentiation, […] to retinoic acid receptors. […] Some of these compounds are thus also active in a test which is used to identify molecules which are RAR antagonists, as described in French patent application No. 95/07302 filed on 19 Jun. 1995 by the same Assignee as the present invention, which is incorporated by reference in its entirety herein. […] Thus, the response to a topical application, to the ear of a mammal, of an RAR-agonist molecule, which corresponds to an increase in the thickness of this ear, may be inhibited by the systemic or topical administration of an RAR-antagonist molecule. In addition, some of these compounds may provide synergism to the biological activity of products binding to the nuclear receptors.
The antagonist activity of the compounds of formula (I) was evaluated in the mouse embryonic teratocarcinoma F9 cell differentiation test, (Cancer Research, 43, 5268 (1983)).
The F9 cells were inoculated in 12-well clusters, the compounds were tested at from 10^−9 to 10^−5 M in the presence of all-trans-retinoic acid or of a synthetic agonist retinoid, 4-(5,6,7,8-tetrahydro-5,5,8,8-tetramethyl-2-naphthylaminomethyl)benzoic acid (CD 2043), at 10^−8 M. After incubation for three days, the morphological observations were carried out and the concentration of the test compound which inhibits the agonist effect on the secretion of the plasminogen activator by 50% (IC50) was determined.

Row | Structure (SMILES) | IC50 (Mus musculus, F9, 72 h) [µM] | IC50 [µM]
1 | COCCOCOc1ccc(/C=C/c2ccc(C(=O)O)cc2)cc1C12CC3CC(CC(C3)C1)C2 [Example 2, 4-[(E)-2-(3-(1-Adamantyl)-4-methoxyethoxymethoxy-phenyl)ethenyl]benzoic acid] | 0.31 | 
2 | COCCOCOc1ccc(/C(C)=C/c2ccc(C(=O)O)cc2)cc1C12CC3CC(CC(C3)C1)C2 [Example 4, 4-[(E)-2-(3-(1-Adamantyl)-4-methoxyethoxymethoxy-phenyl)-1-propenyl]benzoic acid] | 0.009 | 
3 | COCCOCOc1ccc(/C(C)=C\c2ccc(C(=O)O)cc2)cc1C12CC3CC(CC(C3)C1)C2 [Example 5, 4-[(Z)-2-(3-(1-Adamantyl)-4-methoxyethoxymethoxy-phenyl)-1-prorenyl]benzoic acid] |  | 0.63
4 | COCCOCOc1ccc(/C(C)=C/c2ccc(C(=O)O)nc2)cc1C12CC3CC(CC(C3)C1)C2 [Example 7, 5-{2-[3-Adamant-1-yl-4-(2-methoxyethoxymethoxy)-phenyl]proxpen-(E)-yl}pyridine-2-carboxylic acid] |  | 0.6
5 | COCCOCOc1ccc(/C(C)=C/c2ccc(C(=O)O)cn2)cc1C12CC3CC(CC(C3)C1)C2 [Example 10, 6-{2-[3-Adamant-1-yl-4-(2-methoxyethoxymethoxy)-phenyl]proven-(E)-yl}nicotinic acid] |  | 0.035
